{"source": "patent US20220274954A1", "about": "“SUBSTITUTED N-PHENYL-N-AMINOUARCILS AND SALTS THEREOF AND USE THEREOF AS HERBICIDAL AGENTS” (Bayer Aktiengesellschaft, priority 2019, published 2022)", "assay_type_in_all_cases": "in vivo", "key": {"Echinochloa crus-galli": {"test_system": "Echinochloa crus-galli", "test": "Post-emergence herbicidal action", "details": "Echinochloa crus-galli, 504 h, read-out: Echinochloa crus-galli (efficacy in %)", "how_it_was_run": "(§1)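 Plants grown from seed in sandy loam in the greenhouse were sprayed at the one-leaf stage, 2 to 3 weeks after sowing, with WP or EC formulations in water plus 0.5% additive at 20 g/ha or less. Activity was rated visually after about 3 weeks against untreated controls (100% = plants died, 0% = like control).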"}, "Lolium rigidum": {"test_system": "Lolium rigidum", "test": "Post-emergence herbicidal action", "details": "application rate 20 g/ha", "how_it_was_run": "as §1"}, "Polygonum convolvulus": {"test_system": "Polygonum convolvulus", "test": "Post-emergence herbicidal action", "details": "Fallopia convolvulus, 504 h, read-out: Polygonum convolvulus (efficacy in %)", "how_it_was_run": "as §1"}, "Abutilon theophrasti": {"test_system": "Abutilon theophrasti", "test": "Post-emergence herbicidal action", "details": "Abutilon theophrasti, 504 h, read-out: Abutilon theophrasti (efficacy in %)", "how_it_was_run": "as §1"}, "Pharbitis purpurea": {"test_system": "Pharbitis purpurea", "test": "Post-emergence herbicidal action", "details": "Ipomoea purpurea, 504 h, read-out: Pharbitis purpurea (efficacy in %)", "how_it_was_run": "as §1"}, "Amaranthus retroflexus": {"test_system": "Amaranthus retroflexus", "test": "Post-emergence herbicidal action", "details": "Amaranthus retroflexus, 504 h, read-out: Amaranthus retroflexus (efficacy in %)", "how_it_was_run": "as §1"}, "Stellaria media": {"test_system": "Stellaria media", "test": "Post-emergence herbicidal action", "details": "application rate 5 g/ha", "how_it_was_run": "as §1"}, "Setaria viridis": {"test_system": "Setaria viridis", "test": "Post-emergence herbicidal action", "details": "504 h, read-out: Setaria viridis (efficacy in %)", "how_it_was_run": "as §1"}, "Digitaria sanguinalis": {"test_system": "Digitaria sanguinalis", "test": "Post-emergence herbicidal action", "details": "504 h, read-out: Digitaria sanguinalis (efficacy in %)", "how_it_was_run": "as §1"}, "Viola tricolor": {"test_system": "Viola tricolor", "test": "Post-emergence herbicidal action", "details": "Viola tricolor, 504 h, read-out: Viola tricolor (efficacy in %)", "how_it_was_run": "as §1"}, "Veronica persica": {"test_system": "Veronica persica", "test": "Post-emergence herbicidal action", "details": "Veronica persica, 504 h, read-out: Veronica persica (efficacy in %)", "how_it_was_run": "as §1"}, "Hordeum murinum": {"test_system": "Hordeum murinum", "test": "Post-emergence herbicidal action", "how_it_was_run": "as §1"}, "Matricaria inodora": {"test_system": "Matricaria inodora", "test": "Post-emergence herbicidal action", "details": "Tripleurospermum inodorum, 504 h, read-out: Matricaria inodora (efficacy in %)", "how_it_was_run": "as §1"}, "Glycine max": {"test_system": "Glycine max", "test": "Post-emergence crop plant compatibility", "details": "application rate 5 g/ha", "how_it_was_run": "(§2)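 Values are visual % effects about 3 weeks after treatment, relative to untreated plants (0% = like control, 100% = plant death). Crops sown in sandy loam under greenhouse conditions were treated post-emergence at the one-leaf stage (2–3 weeks). Compounds were applied as WP or EC sprays with 0.5% additive at […] water.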"}, "Zea mays": {"test_system": "Zea mays", "test": "Post-emergence crop plant compatibility", "details": "application rate 1.25 g/ha", "how_it_was_run": "as §2"}, "Oryza sativa": {"test_system": "Oryza sativa", "test": "Post-emergence crop plant compatibility", "how_it_was_run": "as §2"}, "Triticum aestivum": {"test_system": "Triticum aestivum", "test": "Post-emergence crop plant compatibility", "details": "application rate 1.25 g/ha", "how_it_was_run": "as §2"}}}
{"compound": "COC(=O)COc1ncccc1Sc1cc(-n2c(=O)cc(C(F)(F)F)n(N)c2=O)c(F)cc1Cl", "note": "[I.1-441, Methyl {[3-({5-[3-amino-2,6-dioxo-4-(trifluoromethyl)-3,6-dihydropyrimidin-1(2H)-yl]-2-chloro-4-fluorophenyl}sulfanyl)pyridin-2-yl]oxy}acetate]", "values": [{"measurement": "pest or weed control at 5 g/ha", "setting": "Echinochloa crus-galli; application rate 5 g/ha", "value": 80, "unit": "%"}, {"measurement": "pest or weed control at 20 g/ha", "setting": "Echinochloa crus-galli; application rate 20 g/ha", "value": 100, "unit": "%"}, {"measurement": "Lolium rigidum (efficacy in %)", "setting": "Lolium rigidum", "value": 80, "unit": "%"}, {"measurement": "pest or weed control at 5 g/ha", "setting": "Polygonum convolvulus; application rate 5 g/ha", "value": 80, "unit": "%"}, {"measurement": "pest or weed control at 20 g/ha", "setting": "Polygonum convolvulus; application rate 20 g/ha", "value": 100, "unit": "%"}, {"measurement": "pest or weed control at 5 g/ha", "setting": "Abutilon theophrasti; application rate 5 g/ha", "value": 100, "unit": "%"}, {"measurement": "pest or weed control at 20 g/ha", "setting": "Abutilon theophrasti; application rate 20 g/ha", "value": 100, "unit": "%"}, {"measurement": "pest or weed control at 5 g/ha", "setting": "Pharbitis purpurea; application rate 5 g/ha", "value": 100, "unit": "%"}, {"measurement": "pest or weed control at 20 g/ha", "setting": "Pharbitis purpurea; application rate 20 g/ha", "value": 100, "unit": "%"}, {"measurement": "pest or weed control at 5 g/ha", "setting": "Amaranthus retroflexus; application rate 5 g/ha", "value": 100, "unit": "%"}, {"measurement": "pest or weed control at 20 g/ha", "setting": "Amaranthus retroflexus; application rate 20 g/ha", "value": 100, "unit": "%"}, {"measurement": "Stellaria media (efficacy in %)", "setting": "Stellaria media", "value": 100, "unit": "%"}, {"measurement": "pest or weed control at 5 g/ha", "setting": "Setaria viridis; application rate 5 g/ha", "value": 100, "unit": "%"}, {"measurement": "pest or weed control at 20 g/ha", "setting": "Setaria viridis; application rate 20 g/ha", "value": 100, "unit": "%"}, {"measurement": "pest or weed control at 5 g/ha", "setting": "Digitaria sanguinalis; application rate 5 g/ha", "value": 90, "unit": "%"}, {"measurement": "pest or weed control at 20 g/ha", "setting": "Digitaria sanguinalis; application rate 20 g/ha", "value": 100, "unit": "%"}, {"measurement": "pest or weed control at 5 g/ha", "setting": "Viola tricolor; application rate 5 g/ha", "value": 100, "unit": "%"}, {"measurement": "pest or weed control at 20 g/ha", "setting": "Viola tricolor; application rate 20 g/ha", "value": 100, "unit": "%"}, {"measurement": "pest or weed control at 5 g/ha", "setting": "Veronica persica; application rate 5 g/ha", "value": 100, "unit": "%"}, {"measurement": "pest or weed control at 20 g/ha", "setting": "Veronica persica; application rate 20 g/ha", "value": 100, "unit": "%"}, {"measurement": "Hordeum murinum (efficacy in %)", "setting": "Hordeum murinum; application rate 5 g/ha", "value": 80, "unit": "%"}, {"measurement": "Hordeum murinum (efficacy in %)", "setting": "Hordeum murinum; application rate 20 g/ha", "value": 100, "unit": "%"}, {"measurement": "pest or weed control at 5 g/ha", "setting": "Matricaria inodora; application rate 5 g/ha", "value": 100, "unit": "%"}, {"measurement": "pest or weed control at 20 g/ha", "setting": "Matricaria inodora; application rate 20 g/ha", "value": 100, "unit": "%"}, {"measurement": "Glycine max (efficacy in %)", "setting": "Glycine max", "value": 20, "unit": "%"}, {"measurement": "Zea mays (efficacy in %)", "setting": "Zea mays", "value": 20, "unit": "%"}, {"measurement": "Oryza sativa (efficacy in %)", "setting": "Oryza sativa; application rate 1.25 g/ha", "value": 10, "unit": "%"}, {"measurement": "Oryza sativa (efficacy in %)", "setting": "Oryza sativa; application rate 5 g/ha", "value": 20, "unit": "%"}, {"measurement": "Triticum aestivum (efficacy in %)", "setting": "Triticum aestivum", "value": 20, "unit": "%"}]}
